Results on seven molecules are retold here after patent US6194465A, “Benzamide therapeutics for the treatment of inflammatory bowel disease” (priority 1999, dated 2001).

“Also recorded” adds a separate entry of the source.

For series [1], the system named is TNBS-induced colonic inflammation. As to the kind of experiment: TNBS model, Compound N and comparison with 5-ASA. The class given is in vivo, rats. How it is done: Male Sprague-Dawley rats (200-250 g) were housed in standard cages (2 per cage) and fed rat chow and tap water ad libitum. After an overnight fast, rats were brought into the laboratory and randomized into treatment groups. Colitis was induced by intrarectal administration of 0.5 ml of TNBS solution (50 mg/kg in 50% ethanol) using a 1 ml syringe attached to a 5 cm polyethylene catheter. Control animals received saline (0.9%) or a 1 % methyl cellulose suspension at identical time points.
Three days after TNBS administration, the rats were sacrificed and the colons excised and opened longitudinally.
Compound N was subjected to a series of TNBS activity tests as just described.
Groups of rats (11 rats/group) were administered Compound N (10 mg/kg po), 5-ASA (10 mg/kg po), 5-ASA (300 mg/kg po), or the methylcellulose vehicle 1 hour prior to the TNBS enema. After 3 days the rats were sacrificed and the colonic damage morphologically evaluated.
Groups of rats, were administered increasing doses of Compound N (0-100 mg/kg-po) 1 hour prior to TNBS enema. In these experiments the endpoint was macroscopic assessment.

Series [2] has as its system inflammatory bowel disease. To be noted: cited from earlier work; for effectiveness in small bowel inflammation / side-effects (in words): IBD patients.
The test system of series [3] is TNBS induced model of colitis. To be noted: only if multiple high doses administered intra-rectally; cited from earlier work.
Series [4] is described as follows: PK parameter estimates, 30 mg/kg po (Table 1). The class given is in vivo, rats. The conditions noted are these: Compound N relative to Compound A, rats, 30 mg/kg po; 30 mg/kg. The procedure: The bioavailability of compound N is depicted in FIG. 10 as well. |(NRTs Dosed 30 mg/kg po in 1% Methyl Cellulose, n = 3 rats/NRT)
Series [5] concerns lethality induced by LPS. To be noted: various rodent models of septic shock; cited from earlier work.
Series [6] deals with senescence accelerated mice. To be noted: cited from earlier work.
For series [7], the system named is inducible nitric oxide synthetase (iNOS). To be noted: cited from earlier work.
The conditions of series [8]: following ischemia; cited from earlier work.
In series [9] the test system is adjuvant induced arthritis. Nature of the series: Rat adjuvant induced arthritis model of chronic inflammation. The class given is in vivo. To be noted: Compound A 100 mg/kg po or dexamethasone 0.1 mg/kg, daily 7 days, vs adjuvant. The procedure: Confirmation of the anti-inflammatory activity of Compound A was sought in another related biological test-the rat adjuvant induced arthritis model of chronic inflammation. This model was selected because almost all of the anti-IBD agents also show efficacy in standard arthritis models. In this model Compound A was tested at 100 mg/kg, po in a 1 % methyl cellulose suspension. On day 0 all animals received an injection of either Mycobacterium butyricum (100μL, 20 mg/mL in mineral oil) or mineral oil in the base of the tail. 14 days after this injection, rat paws were measured and all the rats were randomized into 3 treatment groups of 8. A control adjuvant group (group without further treatment), a group to be treated with dexamethasone (steroid reference) and a group to treated with Compound A. Rats received Compound A 100 mg/kg, po, or dexamethasone 0.1 mg/kg, op, daily until day 21 (7 days dosing). On day 21 rats were sacrificed. Paw measurements were taken after 5 and 7 days treatment.

[10] abbreviates: 0-100 mg/kg po, 1 hour prior to TNBS.

Consider `Nc1ccc(O)c(C(=O)O)c1` [Compound 5-ASA], for which, in [1] (10 mg/kg po, 1 hour before TNBS), the “effect on TNBS-induced colonic inflammation, 5-ASA 10 mg/kg” value is reported as “no effect”. The “effect on TNBS-induced colonic inflammation, 5-ASA 300 mg/kg” value in [1] (300 mg/kg po, 1 hour before TNBS) is on record as “no effect”. In addition, in [2] (5-ASA therapy), the “time to full efficacy” value is recorded as 6-8 weeks. Further, in series [2], the “response in Crohn's disease” value is “poor”, the “response in early ulcerative colitis” value is listed as “fair to mild” and the “response in severe ulcerative colitis” value is listed as “poor”. Besides, in [3], the “protection, 5-ASA intra-rectal” value is reported as 50%.
For the molecule `CC(C)(C)NC(=O)c1ccc(N)cc1` [Compound N, N-tert-butyl-4-aminobenzamide], the “clearance / systemic exposure / variability (in words)” value in series [4] is reported as “lower clearance; also recorded: overall greater systemic exposure; also recorded: relatively low variability in plasma concentration”. Besides, in [1] (setting [10]), the “colonic morphological score, dose-response (in words)” value is “dose=dependent reduction in the colonic morphological score”; the significance of protection entry is “only significant (p <0.05) at the 10, 30 and 100 mg/kg doses”. Moreover, the “efficacy, 10 mg/kg po, Compound N” value in series [1] (10 mg/kg po single dose, 1 hour before TNBS) is reported as “excellent efficacy”. In [1] (TNBS activity tests), the “activity relative to Compound A” value was “better activity than that of Compound A” and the protection worked out at 75%.
Regarding `CC(C)(C)[N+]([O-])=Cc1ccccc1` [PBN, α-phenyl-t-butyl nitrone], the “protection against lethality induced by LPS” value in series [5] was “consistent and well documented protection”. Moreover, the “increase of life span” value in [6] is recorded as “one third”. The “block of iNOS” value in series [7] is “block inducible nitric oxide synthetase”. Further, the “trapping of reactive oxygen species and/or secondary free radicals” value in series [8] is “trap reactive oxygen species and/or secondary free radicals”.
Take `C[C@@H]1C[C@H]2[C@@H]3CCC4=CC(=O)C=C[C@]4(C)[C@@]3(F)[C@@H](O)C[C@]2(C)[C@@]1(O)C(=O)CO` [dexamethasone, reference compound]: the “inhibition of the inflammatory response” value in series [9] is on record as “significant inhibition of the inflammatory response (p<0.005)”.
For the molecule `O=C(O)c1cc(/N=N/c2ccc(O)c(C(=O)O)c2)ccc1O` [olsalazine], in series [2], the “effectiveness in small bowel inflammation” value was “Neither sulfasalazine nor olsalazine are effective” and the “side-effects (in words)” value is “side effects are reduced”.
For `Nc1ccc(S(=O)(=O)Nc2ccccn2)cc1` [sulfapyridine], the “side-effects (in words)” value in series [2] is on record as “significant side-effects such as reversible sperm abnormalities, dyspepsia or allergic reactions to the sulpha component”. Also, in series [2] (sulfapyridine component of sulfasalazine), the “patients who cannot tolerate” value is “at least 20 % of patients”.
For the molecule `O=C(O)c1cc(/N=N/c2ccc(S(=O)(=O)Nc3ccccn3)cc2)ccc1O` [sulfasalazine], in series [2], the “response in Crohn's disease” value is “poor”, the “effectiveness in small bowel inflammation” value is listed as “Neither sulfasalazine nor olsalazine are effective”, the “response in early ulcerative colitis” value was “fair to mild” and the “response in severe ulcerative colitis” value was “poor”.
